Laboratory results published in patent publication US20210316003A1 (Immunomedics, Inc., priority 2020, published 2021).
Entries after “also recorded” stand apart in the source; their conditions may differ.

Experiments:
[1] = system: patients with metastatic TNBC; assay: Phase I/II trial (NCT01631552), metastatic TNBC: efficacy by RECIST 1.1; type: in vivo, human
Excerpt: (§1) Patients with relapsed/refractory TNBC who had previously failed at at least one prior line of therapy were enrolled in a single-arm, multicenter trial (Bardia et al., 2019, N Engl J Med 380:741-51). The present study reports on 108 patients who had failed at least two prior lines of therapy (median three prior therapies) (Bardia et al., 2019, N Engl J Med 380:741-51). […] For severe treatment-related adverse events, a 25% dose reduction was allowed after the first occurrence, 50% after the second and discontinuation after the third. Of the 108 patients, 107 were female and 1 was male, with a median age of 55. Prior therapies included treatment with taxanes (98%), anthracyclines (86%), platinum agents (69%), gemcitabine (55%), eribulin (45%) and checkpoint inhibitors (17%). Tumor staging was performed by computed tomography (CT) and MRI at baseline, followed up at 8 week intervals from the start of treatment until disease progression.

[2] = system: patients with metastatic TNBC; assay: Phase I/II trial (NCT01631552), metastatic TNBC: adverse events; type: in vivo, human; details: N = 108
Excerpt: as §1

[3] = system: patients with mSCLC; assay: Antibody responses to sacituzumab govitecan, the IgG antibody and SN-38 in serum (ELISA), mSCLC; type: in vivo, human; details: treatment up to 22 months, up to 63 doses
Procedure: Positivity required at least 10% of the tumor cells to be stained, with an intensity scored as 1+(weak), 2+(moderate), and 3+(strong). […] Assay sensitivity is 50 ng/mL for the ADC and the IgG, and 170 ng/mL for anti-SN-38 antibody.

[4] = system: patients with diverse metastatic cancers; assay: Phase I trial and phase II extension in diverse epithelial cancers: best response and time to progression; type: in vivo, human
Excerpt: The present Example reports the initial Phase I trial of 25 patients (pts) who had failed multiple prior therapies (some including topoisomcrasc-I/II inhibiting drugs), and the ongoing Phase II extension now reporting on 69 pts, including in colorectal (CRC), small-cell and non-small cell lung (SCLC, NSCLC, respectively), triple-negative breast (TNBC), pancreatic (PDC), esophageal, gastric, prostate, ovarian, renal, urinary bladder, head/neck and hepatocellular cancers. Patients were refractory/relapsed after standard treatment regimens for metastatic cancer. […]
A total of 69 patients (including 25 patients in Phase I) with diverse metastatic cancers having a median of 3 prior therapies were reported. Eight patients had clinical progression and withdrew before CT assessment. Thirteen CT-assessable pancreatic cancer patients were separately reported. The median TTP (time to progression) in PDC patients was 11.9 wks (range 2 to 21.4 wks) compared to median 8 wks TTP for the preceding last therapy.
A total of 48 patients with diverse cancers had at least 1 CT-assessment from which Best Response and Time to Progression (TTP) were determined. […] For SCLC (small cell lung cancer), of 4 assessable patients there were 2 PR, 0 SD and 2 PD for a total response of 2/4 (50%). For CRC (colorectal cancer), of 18 assessable patients there were 1 PR, 11 SD and 6 PD for a total response of 12/18 (67%). For esophageal cancer, of 4 assessable patients there were 1 PR, 2 SD and 1 PD for a total response of 3/4 (75%). For NSCLC (non-small cell lung cancer), of 5 assessable patients there were 1 PR, 3 SD and 1 PD for a total response of 4/5 (80%). Over all patients treated, of 48 assessable patients there were 7 PR, 27 SD and 14 PD for a total response of 34/48 (71%).

[5] = Serum pharmacokinetics (ELISA for IgG and intact conjugate, HPLC for SN-38); type: in vivo, human; details: patients
Procedure: Two ELISA methods were used to measure the clearance of the IgG (capture with anti-hRS7 idiotype antibody) and the intact conjugate (capture with anti-SN-38 IgG/probe with anti-hRS7 idiotype antibody). SN-38 was measured by HPLC.

[6] = In vivo animal studies: release of SN-38 from the conjugate
Excerpt: Plasma CEA and CA19-9 correlated with responses.

[7] = system: patients with metastatic urothelial cancer (mUC); details: 10 mg/kg, cited from earlier work
[8] = system: patients with mSCLC; details: 53 mSCLC patients (Gray et al., 2017); cited from earlier work
[9] = system: TNBC xenografts; details: nude mice bearing TNBC xenografts, independent of BRCA1/2 mutation status; cited from earlier work
[10] = system: patients with mSCLC; assay: Phase I/II trial (NCT01631552), mSCLC: safety and tolerability; details: N = 53
Procedure: Doses of 8 or 10 mg/kg were given on days 1 and 8 of a 21-day cycle, with contingencies to delay (maximum of 2 weeks). Toxicities were managed by supportive hematopoietic growth-factor therapy for blood cell reduction, dose delays and/or modification as specified in the protocol (e.g., 25% of prior dose), or by standard medical practice. Treatment was continued until disease progression, initiation of alternative anticancer therapy, unacceptable toxicity, or withdrawal of consent.
Safety evaluations were conducted during scheduled visits or more frequently if warranted.
Statistical Analyses—The data included in the analyses were derived from patients enrolled from November 2013 to June 2016, with follow-up through Jan. […] The frequency and severity of adverse events (AEs) were defined by MedDRA Preferred Term and System Organ Class (SOC) version 10, with severity assessed by NCI-CTCAE v4.03.

[11] = 48 assessable pts (excluding PDC)
[12] = 48 assessable pts (excluding PDC), listed as hRS7-SN-38
[13] = CRC, person, after 10 months of treatment
[14] = esophageal cancer, 4 assessable patients

sacituzumab govitecan
Response rate among patients who had failed previous checkpoint inhibitor therapy [1]: 44%
Complete responses (CR) ([1]; 10 mg/kg, N = 108): 2.8%
Median overall survival ([1]; 10 mg/kg, N = 108): 13.0 months
Median progression-free survival ([1]; 10 mg/kg, N = 108): 5.5 months
Estimated probability that a patient would exhibit a response at 6 months ([1]; 36 responders): 59.7%
Estimated probability that a patient would exhibit a response at 12 months ([1]; 36 responders): 27.0%
Median duration of response ([1]; 36 responders): 7.7 months
Median time to response ([1]; 36 responders): 2.0 months
Patients with long-term responses of more than 12 months ([1]; at data cutoff): 6
Response rate (CR+PR) ([1]; ≥2 prior lines, 10 mg/kg days 1 and 8 of 21 day cycle, N = 108): 33.3%
Anemia, % of patients [2]: 50%
Anemia, grade 3 [2]: 11%
Decreased white blood cell count, grade 4 [2]: 3%
Diarrhea, % of patients [2]: 62%
Diarrhea, grade 3 [2]: 8%
Fatigue, % of patients [2]: 55%
Fatigue, grade 3 [2]: 8%
Hyperglycemia, grade 4 [2]: 1%
Nausea, % of patients [2]: 67%
Nausea, grade 3 [2]: 6%
Neutropenia, % of patients [2]: 64%
Neutropenia, grade 3 [2]: 26%
Neutropenia, grade 4 [2]: 16%
Vomiting, % of patients [2]: 49%
Vomiting, grade 3 [2]: 6%
Immunogenicity: antibodies to sacituzumab govitecan, the hRS7 antibody, or SN-38 [3]: not immunogenic; also recorded: No neutralizing antibodies
Partial response (PR), % of patients [4, 11]: 15%
Stable disease (SD), % of patients [4, 11]: 56%
Stable disease (SD), number of patients [4, 11]: 27
Total response [PR+SD], % of patients [4, 11]: 79%
Total response [PR+SD], number of patients [4, 11]: 38
Total response [PR+SD], % of patients [4, 12]: 71%
Total response [PR+SD], number of patients [4, 12]: 34/48
Total response [PR+SD] ([4]; CRC, 12/18): 67%
PD, number of patients ([4]; CRC, 18 assessable patients): 6
PR, number of patients ([4]; CRC, 18 assessable patients): 1
CEA after treatment (decrease from 781), single patient [4, 13]: 26.5 ng/mF
Maximum reduction in target lesions, single patient [4, 13]: 65%
Reduction in target lesions on first CT assessment (PR), single patient ([4]; CRC, person, starting dose 8 mg/kg): 37%
Total response [PR+SD] ([4]; NSCLC, 4/5): 80%
PD, number of patients ([4]; NSCLC, 5 assessable patients): 1
PR, number of patients ([4]; NSCLC, 5 assessable patients): 1
Primary target lesion size at first CT (from 5.6 cm), single patient ([4]; NSCLC, person, after 6th dose): 3.2 cm
Total response [PR+SD] ([4]; SCLC, 2/4): 50%
PD, number of patients ([4]; SCLC, 4 assessable patients): 2
PR, number of patients ([4]; SCLC, 4 assessable patients): 2
Reduction in target lesions, single patient ([4]; SCLC, person, 12 mg/kg reduced to 6.8 mg/kg, after two months): 38%
Total response [PR+SD] ([4]; TNBC, 6/8): 75%
PD, number of patients ([4]; TNBC, 8 assessable patients): 2
PR, number of patients ([4]; TNBC, 8 assessable patients): 2
PD, number of patients ([4]; all, 48 assessable patients): 14
PR, number of patients ([4]; all, 48 assessable patients): 7
Total response [PR+SD] ([4]; esophageal cancer, 3/4): 75%
PD, number of patients [4, 14]: 1
PR, number of patients [4, 14]: 1
Clearance of intact conjugate compared with the IgG ([5]; ELISA): cleared more quickly than the IgG
Time for the conjugate to clear from the serum ([5]; serum): ≤ 3 days
SN-38 in the serum bound to the IgG (non-glucuronidated form) ([5]; serum, HPLC (Unbound and TOTAL)): > 95%
SN-38 released from the conjugate daily [6]: 50%
Complete responses (CR), number ([7]; 35 mUC patients): 2
Confirmed partial responses (PR), number ([7]; 35 mUC patients): 6
Objective response rate (ORR) ([7]; 35 mUC patients): 29%
PR pending confirmation, number ([7]; 35 mUC patients): 2
Treated patients with a reduction in tumor size ([7]; 35 mUC patients): Seventy-four
ORR in patients with liver metastases ([7]; mUC): 25%
Median OS [8]: 7.5 months
Median PFS [8]: 3.7 months
Median response duration [8]: 5.7 months
ORR [8]: 14%
Patients with tumor shrinkage from baseline [8]: Sixty
Tumor growth in combination with olaparib, rucaparib and talazoparib [9]: Synthetic lethality and synergistic inhibition of tumor growth
Treatment-related deaths [10]: No treatment-related deaths were observed
